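Tested at 5 concentrations; 48 h exposure; 96-well plates; endpoints linearly interpolated, else capped at highest concentration. TGI: total growth inhibition.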

Eight compounds from PubChem BioAssay (NCI) can be followed below.

Among the test systems are SNB-19 CNS; UO-31 renal; SF-295 CNS; SNB-75 CNS; M14 melanoma; HOP-92 NSCLC; A549 NSCLC; NCI-H460 lung; HCT-116 colon; HL-60(TB) leukemia; OVCAR-3 ovarian; SK-MEL-5 melanoma; SF-539 CNS; UACC-257 melanoma; UACC-62 melanoma; DMS 273 small cell lung; A498 renal; T-47D breast; DU-145 prostate; MCF7 breast.
What all share (test): DTP human tumour cell line panel, 48 h

The term TGI denotes the concentration at which net growth stops. Read a low TGI as greater sensitivity of the cells. Take `NC(N)=NS(=O)(=O)c1ccc(Nc2c3ccccc3nc3c(C(=O)Nc4ccc(S(N)(=O)=O)cc4)ccc(Cl)c23)cc1`: the TGI in the experiment on SNB-19 CNS, with UO-31 renal, with SF-295 CNS, in the experiment with SNB-75 CNS, in the experiment with M14 melanoma and with HOP-92 NSCLC was greater than 100 µM in each case. Besides, the TGI in the experiment on A549 NSCLC, with NCI-H460 lung, in the experiment on HCT-116 colon, in the experiment on HL-60(TB) leukemia, in the experiment with OVCAR-3 ovarian and in the experiment with SK-MEL-5 melanoma was greater than 100 µM each time. Also, the TGI with SF-539 CNS, in the experiment with UACC-257 melanoma, in the experiment on UACC-62 melanoma, in the experiment on DMS 273 small cell lung and in the experiment on A498 renal was greater than 100 µM each time.
As for `CCOc1ccc(NC(=O)C2=C(C)NC(C)=C(C(=O)Nc3ccc(OCC)cc3)C2c2ccccc2)cc1`, the TGI in the experiment on SNB-19 CNS, in the experiment on UO-31 renal, with SF-295 CNS, in the experiment on SNB-75 CNS, in the experiment on M14 melanoma and in the experiment on HOP-92 NSCLC was greater than 100 µM throughout. The total growth inhibition concentration (TGI) in the experiment on A549 NSCLC is greater than 100 µM; with NCI-H460 lung, greater than 100 µM; in the experiment on HL-60(TB) leukemia, 96.9 µM; in the experiment on OVCAR-3 ovarian, greater than 100 µM; in the experiment with SK-MEL-5 melanoma, greater than 100 µM; with SF-539 CNS it was greater than 100 µM. The TGI with UACC-257 melanoma, with DMS 273 small cell lung and in the experiment on A498 renal was greater than 100 µM each time.
On to `CCOC(=O)c1ccc(NC(=O)SCCC(=O)O)cc1`, for which the TGI with SNB-19 CNS was greater than 100 µM; with UO-31 renal, greater than 100 µM; in the experiment with SF-295 CNS, greater than 100 µM; with SNB-75 CNS, 23.1 µM; in the experiment on M14 melanoma it was greater than 100 µM; in the experiment with A549 NSCLC it was greater than 100 µM. Moreover, the TGI with NCI-H460 lung, with HCT-116 colon, in the experiment with HL-60(TB) leukemia, in the experiment with OVCAR-3 ovarian, with SF-539 CNS and in the experiment on UACC-257 melanoma was greater than 100 µM throughout. For the same compound, the TGI in the experiment with UACC-62 melanoma, in the experiment on DMS 273 small cell lung and in the experiment on A498 renal was greater than 100 µM throughout.
Take `C1=NCCNCCNCCN=Cc2ccccc2OCc2cccc(n2)COc2ccccc21`: the concentration for total growth inhibition (TGI) with SNB-19 CNS was greater than 100 µM; in the experiment with UO-31 renal it was greater than 100 µM; in the experiment with SF-295 CNS it was 94 µM; in the experiment on SNB-75 CNS, greater than 100 µM; in the experiment with M14 melanoma it was greater than 100 µM; with T-47D breast it was greater than 100 µM. The TGI with DU-145 prostate, with HOP-92 NSCLC, in the experiment with A549 NSCLC, in the experiment with MCF7 breast, in the experiment with NCI-H460 lung and with HCT-116 colon was greater than 100 µM each time. For the same compound, the TGI with HL-60(TB) leukemia is 73.7 µM; with OVCAR-3 ovarian, greater than 100 µM; in the experiment with SK-MEL-5 melanoma, greater than 100 µM; in the experiment with SF-539 CNS, 82.3 µM; in the experiment with UACC-257 melanoma, greater than 100 µM; with UACC-62 melanoma, greater than 100 µM. This compound registered a TGI with A498 renal greater than 100 µM.
For the compound `COc1cc(S(=O)(=O)Nc2nc(-c3ccc(N4C(=O)/C(=C/c5ccccc5[N+](=O)[O-])N=C4c4ccccc4)cc3)cs2)ccc1Cl`, the TGI with SNB-19 CNS, with UO-31 renal, in the experiment on SF-295 CNS, with SNB-75 CNS, in the experiment on M14 melanoma and in the experiment on T-47D breast was greater than 100 µM in each case. Moreover, the TGI with DU-145 prostate, in the experiment on HOP-92 NSCLC, in the experiment with A549 NSCLC, in the experiment with MCF7 breast, in the experiment with NCI-H460 lung and with HCT-116 colon was greater than 100 µM throughout. Further, the TGI with HL-60(TB) leukemia is greater than 100 µM; in the experiment with OVCAR-3 ovarian, greater than 100 µM; in the experiment on SK-MEL-5 melanoma, greater than 100 µM; in the experiment with SF-539 CNS it was greater than 100 µM; in the experiment on UACC-257 melanoma it was greater than 100 µM; with UACC-62 melanoma, 92.8 µM. In addition, the TGI in the experiment on A498 renal was greater than 100 µM.
Take `Cc1nc2ccccc2c(=O)n1NC(=S)Nc1ccc(Cl)cc1[N+](=O)[O-]`: the TGI in the experiment on SNB-19 CNS, in the experiment with UO-31 renal, in the experiment with SF-295 CNS, with SNB-75 CNS, in the experiment with M14 melanoma and with T-47D breast was greater than 100 µM in each case. In addition, the concentration for total growth inhibition (TGI) with DU-145 prostate, in the experiment on HOP-92 NSCLC, with A549 NSCLC, in the experiment on MCF7 breast, in the experiment with NCI-H460 lung and in the experiment on HCT-116 colon was greater than 100 µM each time. Further, the TGI in the experiment on HL-60(TB) leukemia, in the experiment on OVCAR-3 ovarian, in the experiment with SK-MEL-5 melanoma, with SF-539 CNS, in the experiment on UACC-257 melanoma and in the experiment on UACC-62 melanoma was greater than 100 µM throughout. The compound further had a TGI with A498 renal greater than 100 µM.
`COc1ccc(C=C(c2ccc(OCc3ccccc3)cc2)c2ccc(OCc3ccccc3)cc2)cc1`: the TGI with SNB-19 CNS, in the experiment on UO-31 renal, in the experiment with SF-295 CNS, in the experiment with SNB-75 CNS, with M14 melanoma and with A549 NSCLC was greater than 100 µM in each case. The TGI in the experiment on NCI-H460 lung, with HL-60(TB) leukemia, with OVCAR-3 ovarian, in the experiment on SK-MEL-5 melanoma, in the experiment with SF-539 CNS and with UACC-257 melanoma was greater than 100 µM throughout. The TGI with UACC-62 melanoma and in the experiment on DMS 273 small cell lung was greater than 100 µM throughout.
With `COc1c(C)cc2c(c1O)C1NC(C2)[C@H](O)N2C3COC(=O)[C@@]4(CS[C@@H](c5c(OC(C)=O)c(C)c6c(c53)OCO6)C12)NCCC1=C4NC2C=CC=CC12` (some centres undefined), the TGI in the experiment on UO-31 renal is 0.0342 µM; in the experiment with SF-295 CNS, less than 0.01 µM; with SNB-75 CNS, less than 0.01 µM; in the experiment with M14 melanoma, less than 0.01 µM; in the experiment on A549 NSCLC it was less than 0.01 µM; in the experiment with HL-60(TB) leukemia, less than 0.01 µM. The TGI with OVCAR-3 ovarian, with SK-MEL-5 melanoma, in the experiment on UACC-62 melanoma, in the experiment with DMS 273 small cell lung and in the experiment on A498 renal was less than 0.01 µM each time.
